Measurements as given in patent US12064455B2, “Free fatty acids and methods of manufacture and use for treating coronavirus and other viral respiratory infections” (priority 2020, dated 2024).
Like-named read-outs stand apart in the source and are kept apart here.

What was measured:
[1] = test system: A549; assay: Toxicity controls, Example 8; format: cell-based; conditions: Ethanol 70%; Ad-5 test; highest dilution with full (80-100%) cytotoxicity
[2] = test system: MA-104; assay: Toxicity controls, Example 8; conditions: Ethanol 70%, highest dilution with full (80-100%) cytotoxicity
[3] = test system: HeLa; assay: Toxicity controls, Example 8; conditions: Ethanol 70%; HRV-14 test; highest dilution with full (80-100%) cytotoxicity
[4] = test system: PIV-3; format: cell-based, parainfluenza virus type 3
[5] = test system: SARS-CoV-2; format: cell-based; conditions: Ethanol 35%
[6] = test system: Influenza(H1N1)pdm09 virus; assay: Neutralization/virucidal assay, Example 8; format: cell-based, influenza A(H1N1)pdm09; conditions: Ethanol 70%
[7] = test system: Huh7
[8] = test system: Ad-5; format: cell-based, Adenovirus Type 5
[9] = test system: hCoV-229E; assay: Neutralization/virucidal assay, Example 8
[10] = test system: RSV; format: cell-based, respiratory syncytial virus
[11] = test system: HRV-14; format: cell-based, human rhinovirus
[12] = test system: MDCK

CCO [Ethanol]
Toxicity [1]: None
Toxicity ([2]; PIV-3 test): None
Toxicity ([2]; RSV test): None
Toxicity [3]: None
LRV [4]: >2.3
LRV ([5]; assay replicate 1): >3.6−
Virus Titer ([5]; assay replicate 1): <0.7 Log10CCID50 of virus per 0.1 ml
LRV ([5]; assay replicate 2): >3.3
Virus Titer ([5]; assay replicate 2): <0.7 Log10CCID50 of virus per 0.1 ml
Virus Titer ([6]; contact time 10-min at 22 ± 2° C.): 3.0 log10 CCID50 of virus per 0.1 mL
LRV ([6]; contact time 10-min, vs virus control): 4.0
Toxicity [7]: None
LRV [8]: 3.4
Virus Titer [8]: 5.3 log10 CCID50 of virus per 0.1 mL
Virus Titer [9]: <0.7 log10 CCID50 of virus per 0.1 mL
LRV ([9]; Ethanol 70%, contact time 10-min, vs virus control): >2.0
LRV [10]: 2.0
Virus Titer [10]: 1.0 log10 CCID50 of virus per 0.1 mL
Virus Titer [11]: 4.5 log10 CCID50 of virus per 0.1 mL
Toxicity [12]: None
